Literature values as cited in patent US20050205101A1, “Combined pharmocological and surgical method and system for the treatment of eye disorders” (priority 2002, published 2005).
Where a name gives a salt, the structure may show the parent alone.

How the values were obtained:
[1] = tested on: emmetropic eye; details: typical concentration of about 4%
[2] = tested on: intraocular pressure (IOP); details: used topically, elevated IOP; van Alphen 1976
[3] = tested on: presbyopic patient; details: presbyopia, administration to the eye; Neufeld US 5,488,050
[4] = tested on: accommodation in humans

CC[C@@H]1C(=O)OC[C@@H]1Cc1cncn1C [Pilocarpine hydrochloride, pilocarpine hydrochloride]
adverse side effect on refraction [1]: becomes myopic
near and distant vision [1]: enhanced near vision but at the sacrifice of distant vision

CC(C)(C)NC[C@H](O)COc1nsnc1N1CCOCC1 [Timolol]
intraocular pressure (IOP) [2]: lower the IOP
vision of presbyopic subject [3]: improved
tonic accommodation ([4]; unfocused eyes, subjects with mean age of 23, Nyberg 1976): net increase in tonic accommodation

CC(C)NCC(O)COc1ccc(CCOCC2CC2)cc1 (centres unmarked) [betaxolol]
intraocular pressure (IOP) [2]: lower the IOP

CC(C)(C)NC[C@H](O)COc1cccc2c1CCCC2=O [levobunolol]
intraocular pressure (IOP) [2]: lower the IOP

CC(=O)Oc1cc(C(C)C)c(OCCN(C)C)cc1C [thymoxamine]
gain in accommodation ([4]; treated subjects, Zetterstrom 1987): transient gain in accommodation
